Data: patent US20230265151A1, “GIP/GLP1 CO-AGONIST COMPOUNDS” (priority 2020, published 2023)
Like-named read-outs stand apart in the source and are kept apart here.

Tests used:
[1] = target: hGLP-1R (Homo sapiens, UniProt P43220); assay: Functional cAMP formation (HTRF) in HEK-293 clonal cells expressing hGLP-1R, 0.1% bovine casein, without or with 1.0% human serum albumin; assay type: cell-based; set-up: expressed in transfected cells; conditions: for Emax: 0.1% bovine casein, arithmetic mean; for EC50: cAMP, 0.1% bovine casein (no human serum albumin), geometric mean
Description: After a 30-min incubation at 37° C., the resulting increase in intracellular cAMP is quantitatively determined using a CisBio cAMP Dynamic 2 HTRF Assay Kit (62AM4PEJ). Briefly, cAMP levels within the cell are detected by adding the cAMP-d2 conjugate in cell lysis buffer (10 µL) followed by the antibody anti-cAMP-Eu^3+-Cryptate, also in cell lysis buffer (10 µL). The resulting competitive assay is incubated for at least 60 min at room temperature, and then is detected using a PerkinElmer Envision® instrument with excitation at 320 nm and emission at 665 nm and 620 nm. Envision units (emission at 665 nm/620 nm* 10,000) are inversely proportional to the amount of cAMP present and are converted to nM cAMP per well us-ing a cAMP standard curve. […] A relative EC50 value and percent top (Emax) are derived by non-linear regression analysis using the percent maximal response vs. the concentration of peptide added, fitted to a four-parameter logistic equation.

[2] = target: T1, hGCGR (Homo sapiens, UniProt P47871); assay: Functional cAMP formation (HTRF) in HEK-293 clonal cells expressing hGCGR, 0.1% bovine casein, without or with 1.0% human serum albumin; assay type: cell-based; conditions: geometric mean
T1 construct: expressed in transfected cells
Procedure, shortened: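 Cells were stimulated with peptide for 30 min at 37° C, then intracellular cAMP was measured by competitive HTRF (665/620 nm ratio) and converted to nM using a cAMP standard curve. Relative EC50 and Emax came from four-parameter logistic fits of percent maximal response against peptide concentration.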

[3] = HEK293, read-out: hGLP-1R Emax, % ± SEM, percent of maximal response to GLP-1(7-36)NH2, 37° C.
[4] = hGCGR EC50, nM (SEM, n), cAMP, incubated at 37° C., 0.1% bovine casein (no human serum albumin)
[5] = incubated at 37° C., read-out: hGLP-1R EC50, nM (SEM, n)
[6] = cAMP, incubated at 37° C., 0.1% bovine casein (no human serum albumin), read-out: hGCGR EC50, nM (SEM, n)

T1 sequence (P47871 26-477): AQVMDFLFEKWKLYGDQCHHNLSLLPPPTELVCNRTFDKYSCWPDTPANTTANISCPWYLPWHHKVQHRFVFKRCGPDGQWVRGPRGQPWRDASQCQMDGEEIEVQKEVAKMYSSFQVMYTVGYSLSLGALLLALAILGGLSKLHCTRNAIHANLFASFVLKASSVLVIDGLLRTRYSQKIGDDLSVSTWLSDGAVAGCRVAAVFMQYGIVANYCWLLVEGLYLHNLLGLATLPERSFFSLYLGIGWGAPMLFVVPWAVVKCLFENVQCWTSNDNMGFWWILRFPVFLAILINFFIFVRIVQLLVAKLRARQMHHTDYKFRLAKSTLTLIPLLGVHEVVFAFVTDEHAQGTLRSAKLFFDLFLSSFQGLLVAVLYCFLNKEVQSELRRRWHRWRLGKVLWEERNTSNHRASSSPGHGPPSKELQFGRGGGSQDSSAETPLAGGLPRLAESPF
Chain of hGLP-1R (P43220 24-463): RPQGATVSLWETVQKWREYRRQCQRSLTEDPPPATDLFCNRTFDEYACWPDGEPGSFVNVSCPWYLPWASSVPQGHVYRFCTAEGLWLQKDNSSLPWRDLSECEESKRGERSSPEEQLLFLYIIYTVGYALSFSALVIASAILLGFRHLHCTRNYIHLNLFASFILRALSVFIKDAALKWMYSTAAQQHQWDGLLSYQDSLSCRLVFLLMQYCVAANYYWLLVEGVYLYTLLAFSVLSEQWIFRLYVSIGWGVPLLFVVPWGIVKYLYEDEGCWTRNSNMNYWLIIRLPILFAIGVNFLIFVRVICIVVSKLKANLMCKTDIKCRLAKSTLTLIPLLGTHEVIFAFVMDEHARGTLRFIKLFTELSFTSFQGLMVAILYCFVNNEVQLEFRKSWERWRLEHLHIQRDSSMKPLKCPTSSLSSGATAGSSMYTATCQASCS

Structure (SMILES)	Emax [1, 3] [%]	EC50 [2, 4] [nM]	EC50 [1, 5] [nM]	EC50 [2, 6] [nM]	further results
CC[C@H](C)[C@H](NC(=O)[C@H](CC(C)C)NC(=O)[C@](C)(Cc1ccc(O)cc1)NC(=O)[C@@H](CCC(=O)O)NC(=O)[C@@H](NC(=O)[C@H](Cc1ccccc1)NC(=O)[C@H](CCC(=O)O)NC(=O)C(C)(C)NC(=O)[C@H](CCC(N)=O)NC(=O)[C@H](C)NC(=O)[C@H](CCCCNC(=O)COCCOCCNC(=O)COCCOCCNC(=O)CC[C@H](NC(=O)CCCCCCCCCCCCC(=O)O)C(=O)O)NC(=O)[C@H](CCCN)NC(=O)[C@H](CC(=O)O)NC(=O)[C@H](CC(C)C)NC(=O)[C@](C)(CC(C)C)NC(=O)[C@@H](NC(=O)[C@H](CO)NC(=O)[C@H](Cc1ccc2ccccc2c1)NC(=O)[C@H](CC(=O)O)NC(=O)[C@H](CO)NC(=O)[C@@H](NC(=O)[C@](C)(Cc1ccccc1F)NC(=O)[C@@H](NC(=O)CNC(=O)[C@H](CCC(=O)O)NC(=O)C(C)(C)NC(=O)[C@@H](N)Cc1ccc(O)cc1)[C@@H](C)O)[C@@H](C)O)[C@@H](C)CC)[C@@H](C)CC)C(=O)N[C@@H](CCCCNC(=O)COCCOCCNC(=O)COCCOCCNC(=O)CC[C@H](NC(=O)CCCCCCCCCCCCC(=O)O)C(=O)O)C(=O)NCC(=O)NCC(=O)N1CCC[C@H]1C(=O)N[C@@H](CO)C(=O)N[C@@H](CO)C(=O)NCC(=O)N[C@@H](C)C(=O)N1CCC[C@H]1C(=O)N1CCC[C@H]1C(=O)N1CCC[C@H]1C(=O)N[C@@H](CO)C(N)=O [Example 250]	–	–	–	–	Emax ([1]; HEK293, cAMP, 37° C., percent of maximal response to GLP-1(7-36)NH2, read-out: hGLP-1R Emax, % ± SEM): 114%; EC50 ([1]; 37° C., read-out: hGLP-1R EC50, nM (SEM, n)): 0.414 nM; EC50 ([2]; 0.1% bovine casein and 1.0% human serum albumin, 37° C., read-out: hGCGR EC50, nM (SEM, n)): > 9950 nM; EC50 ([2]; cAMP, 37° C., 0.1% bovine casein (no human serum albumin), read-out: hGCGR EC50, nM (SEM, n)): > 9950 nM
CC[C@H](C)[C@H](NC(=O)[C@H](CC(C)C)NC(=O)[C@](C)(Cc1ccc(O)cc1)NC(=O)[C@@H](CCC(=O)O)NC(=O)[C@@H](NC(=O)[C@H](Cc1ccccc1)NC(=O)[C@H](CCCCNC(=O)COCCOCCNC(=O)COCCOCCNC(=O)CC[C@H](NC(=O)CCCCCCCCCOc1ccc(C(=O)O)cc1)C(=O)O)NC(=O)C(C)(C)NC(=O)[C@H](CCC(N)=O)NC(=O)[C@H](C)NC(=O)[C@H](CCCCNC(=O)COCCOCCNC(=O)COCCOCCNC(=O)CC[C@H](NC(=O)CCCCCCCCCOc1ccc(C(=O)O)cc1)C(=O)O)NC(=O)[C@H](CCCN)NC(=O)[C@H](CC(=O)O)NC(=O)[C@H](CC(C)C)NC(=O)[C@](C)(CC(C)C)NC(=O)[C@@H](NC(=O)[C@H](CO)NC(=O)[C@H](Cc1ccncc1)NC(=O)[C@H](CC(=O)O)NC(=O)[C@H](CO)NC(=O)[C@@H](NC(=O)[C@](C)(Cc1ccccc1F)NC(=O)[C@@H](NC(=O)CNC(=O)[C@H](CCC(=O)O)NC(=O)C(C)(C)NC(=O)[C@@H](N)Cc1ccc(O)cc1)[C@@H](C)O)[C@@H](C)O)[C@@H](C)CC)[C@@H](C)CC)C(=O)N[C@@H](CCC(=O)O)C(=O)NCC(=O)NCC(=O)N1CCC[C@H]1C(=O)N[C@@H](CO)C(=O)N[C@@H](CO)C(=O)NCC(=O)N[C@@H](C)C(=O)N1CCC[C@H]1C(=O)N1CCC[C@H]1C(=O)N1CCC[C@H]1C(=O)N[C@@H](CO)C(N)=O [Example 127]	98.5	> 9950	–	–	–
CC[C@H](C)[C@H](NC(=O)[C@H](CC(C)C)NC(=O)[C@](C)(Cc1ccc(O)cc1)NC(=O)[C@@H](CCC(=O)O)NC(=O)[C@@H](NC(=O)[C@H](Cc1ccccc1)NC(=O)[C@H](CCC(=O)O)NC(=O)[C@H](CCCN)NC(=O)[C@H](CCC(N)=O)NC(=O)[C@H](C)NC(=O)[C@H](CCCCNC(=O)COCCOCCNC(=O)COCCOCCNC(=O)CC[C@H](NC(=O)CCCCCCCCCCCCC(=O)O)C(=O)O)NC(=O)[C@H](CCCN)NC(=O)[C@H](CC(=O)O)NC(=O)[C@H](CC(C)C)NC(=O)[C@](C)(CC(C)C)NC(=O)[C@@H](NC(=O)[C@H](CO)NC(=O)[C@H](Cc1ccncc1)NC(=O)[C@H](CC(=O)O)NC(=O)[C@H](CO)NC(=O)[C@@H](NC(=O)[C@](C)(Cc1ccccc1F)NC(=O)[C@@H](NC(=O)CNC(=O)[C@H](CCC(=O)O)NC(=O)C(C)(C)NC(=O)[C@@H](N)Cc1ccc(O)cc1)[C@@H](C)O)[C@@H](C)O)[C@@H](C)CC)[C@@H](C)CC)C(=O)N[C@@H](CCC(=O)O)C(=O)NCC(=O)NCC(=O)N[C@@H](CCCCNC(=O)COCCOCCNC(=O)COCCOCCNC(=O)CC[C@H](NC(=O)CCCCCCCCCCCCC(=O)O)C(=O)O)C(=O)N[C@@H](CO)C(=O)N[C@@H](CO)C(=O)NCC(=O)N[C@@H](C)C(=O)N1CCC[C@H]1C(=O)N1CCC[C@H]1C(=O)N1CCC[C@H]1C(=O)N[C@@H](CO)C(N)=O [Example 149]	–	–	1.5	> 9950	Emax ([1]; HEK293, percent of maximal response to GLP-1(7-36)NH2, 37° C., read-out: hGLP-1R Emax, % ± SEM): 98.3 ± 0.579%
CC[C@H](C)[C@H](NC(=O)[C@H](CCCN)NC(=O)[C@H](CC(=O)O)NC(=O)[C@H](CC(C)C)NC(=O)[C@](C)(CC(C)C)NC(=O)[C@@H](NC(=O)[C@H](CO)NC(=O)[C@H](CCCCNC(=O)COCCOCCNC(=O)COCCOCCNC(=O)CC[C@H](NC(=O)CCCCCCCCCCCCC(=O)O)C(=O)O)NC(=O)[C@H](CC(=O)O)NC(=O)[C@H](CO)NC(=O)[C@@H](NC(=O)[C@](C)(Cc1ccccc1F)NC(=O)[C@@H](NC(=O)CNC(=O)[C@H](CCC(=O)O)NC(=O)C(C)(C)NC(=O)[C@@H](N)Cc1ccc(O)cc1)[C@@H](C)O)[C@@H](C)O)[C@@H](C)CC)C(=O)N[C@@H](C)C(=O)N[C@@H](CCC(N)=O)C(=O)NC(C)(C)C(=O)N[C@@H](CCCCNC(=O)COCCOCCNC(=O)COCCOCCNC(=O)CC[C@H](NC(=O)CCCCCCCCCCCCC(=O)O)C(=O)O)C(=O)N[C@@H](Cc1ccccc1)C(=O)N[C@H](C(=O)N[C@H](CCC(=O)O)C(=O)N[C@@](C)(Cc1ccc(O)cc1)C(=O)N[C@@H](CC(C)C)C(=O)N[C@H](C(=O)N[C@@H](CCC(=O)O)C(=O)NCC(=O)NCC(=O)N1CCC[C@H]1C(=O)N[C@@H](CO)C(=O)N[C@@H](CO)C(=O)NCC(=O)N[C@@H](C)C(=O)N1CCC[C@H]1C(=O)N1CCC[C@H]1C(=O)N1CCC[C@H]1C(=O)N[C@@H](CO)C(N)=O)[C@@H](C)CC)[C@@H](C)CC [Example 105]	–	–	0.52	> 9950	–
CC[C@H](C)[C@H](NC(=O)[C@H](CC(C)C)NC(=O)[C@](C)(Cc1ccccc1)NC(=O)[C@H](CCCCNC(=O)COCCOCCNC(=O)COCCOCCNC(=O)CC[C@H](NC(=O)CCCCCCCCCCCCC(=O)O)C(=O)O)NC(=O)[C@@H](NC(=O)[C@](C)(Cc1ccccc1)NC(=O)[C@H](CCC(=O)O)NC(=O)C(C)(C)NC(=O)[C@H](CCC(N)=O)NC(=O)[C@H](C)NC(=O)[C@H](CCCCNC(=O)COCCOCCNC(=O)COCCOCCNC(=O)CC[C@H](NC(=O)CCCCCCCCCCCCC(=O)O)C(=O)O)NC(=O)[C@H](CCCN)NC(=O)[C@H](CC(=O)O)NC(=O)[C@H](CC(C)C)NC(=O)[C@](C)(CC(C)C)NC(=O)[C@@H](NC(=O)[C@H](CO)NC(=O)C1(NC(=O)[C@H](CC(=O)O)NC(=O)[C@H](CO)NC(=O)[C@@H](NC(=O)[C@](C)(Cc2ccccc2F)NC(=O)[C@@H](NC(=O)CNC(=O)[C@H](CCC(=O)O)NC(=O)C(C)(C)NC(=O)[C@@H](N)Cc2ccc(O)cc2)[C@@H](C)O)[C@@H](C)O)CCCC1)[C@@H](C)CC)[C@@H](C)CC)C(=O)N[C@@H](CCC(=O)O)C(=O)NCC(=O)NCC(=O)N1CCC[C@H]1C(=O)N[C@@H](CO)C(=O)N[C@@H](CO)C(=O)NCC(=O)N[C@@H](C)C(=O)N1CCC[C@H]1C(=O)N1CCC[C@H]1C(=O)N1CCC[C@H]1C(=O)N[C@@H](CO)C(N)=O [Example 124]	93.3	> 9950	–	–	–
CC[C@H](C)[C@H](NC(=O)[C@H](CC(C)C)NC(=O)[C@](C)(Cc1ccc(O)cc1)NC(=O)[C@H](CCCCNC(=O)COCCOCCNC(=O)COCCOCCNC(=O)CC[C@H](NC(=O)CCCCCCCCCCCCC(=O)O)C(=O)O)NC(=O)[C@@H](NC(=O)[C@](C)(Cc1ccccc1)NC(=O)[C@H](CCC(=O)O)NC(=O)C(C)(C)NC(=O)[C@H](CCC(N)=O)NC(=O)[C@H](C)NC(=O)[C@H](CCCCNC(=O)COCCOCCNC(=O)COCCOCCNC(=O)CC[C@H](NC(=O)CCCCCCCCCCCCC(=O)O)C(=O)O)NC(=O)[C@H](CCCN)NC(=O)[C@H](CC(=O)O)NC(=O)[C@H](CC(C)C)NC(=O)[C@](C)(CC(C)C)NC(=O)[C@@H](NC(=O)[C@H](CO)NC(=O)C1(NC(=O)[C@H](CC(=O)O)NC(=O)[C@H](CO)NC(=O)[C@@H](NC(=O)[C@](C)(Cc2ccccc2F)NC(=O)[C@@H](NC(=O)CNC(=O)[C@H](CCC(=O)O)NC(=O)C(C)(C)NC(=O)[C@@H](N)Cc2ccc(O)cc2)[C@@H](C)O)[C@@H](C)O)CCCC1)[C@@H](C)CC)[C@@H](C)CC)C(=O)N[C@@H](CCC(=O)O)C(=O)NCC(=O)NCC(=O)N1CCC[C@H]1C(=O)N[C@@H](CO)C(=O)N[C@@H](CO)C(=O)NCC(=O)N[C@@H](C)C(=O)N1CCC[C@H]1C(=O)N1CCC[C@H]1C(=O)N1CCC[C@H]1C(=O)N[C@@H](CO)C(N)=O [Example 120]	–	> 9950	–	–	EC50 ([1]; hGLP-1R EC50, nM (SEM, n), incubated at 37° C.): 1.43 nM
